Source: patent US12440476B2, “Agents that target telomerase reverse transcriptase (TERT) for treating cancer and sensitizing cancer cells to genotoxic therapy” (Northwestern University, priority 2022, dated 2025)

Tests used:
Saos-2 cells = assay: DNA damage foci staining (53BP1, γH2AX); format: cell-based, human; settings: 1 μM NU-1, 0 or 6 Gy
Method: MCF7 or Saos-2 cells were seeded on sterile cover glass at 2.5×10^4 per well in 24-well plates. MCF7 cells were treated with DMSO, NU-2 (0.5 μM), NU-1 (0.5 μM), chrolactomycin (0.5 μM), BIBR 1532 (10 μM), or MST-312 (1 μM) for 1 h, and Saos-2 cells were treated with DMSO or NU-1 (1 μM) for 1 h, followed by 0 or 6 Gy irradiation. 24 h after irradiation, cells were fixed with 4% PFA for 10 min and permeabilized with 0.2% Triton-X 100 diluted in PBS for 10 min at room temperature. After blocking with 5% BSA-PBS for 1 h, primary antibodies for γH2AX (Millipore, 05-636, 1:1000) or 53BP1 (Novus, NB100-304, 1:1000) diluted in 5% BSA-PBS were then incubated on cell slides overnight at 4° C. Following PBS washes, DAPI (1 μg/mL) and fluorescent secondary antibodies (Jackson ImmunoResearch, 1:2000, ) diluted in 5% BSA-PBS were applied for 1 h at room temperature. Cell slides were mounted with ProLong Gold Antifade Mountant (Thermo Fisher Scientific) after PBS washes. Foci images were captured on a Zeiss Axiovert 40CFL with a 40× Plan-NeoFluar objective and pseudo-colored using Fiji. Three replicates were performed.

MCF7 cells = assay: Senescence-associated beta-galactosidase (SA-β-Gal) assay; format: cell-based, human; settings: 50 nM, 7 days after IR
Method: MCF7, Saos-2, or CT26 cells were seeded at 3×10^4 per well in 6-well plates and allowed to attach to plate overnight. […] Then MCF7 and Saos-2 cells were irradiated with 0 or 6 Gy and CT26 cells with 0 or 10 Gy. After IR, MCF7 and Saos-2 cells were continuously cultured for 7 days and CT26 for 5 days, then fixed in 2% PFA and stained with staining buffer (1 mg/ml X-Gal (Golden Bio), 40 mM citric acid/sodium phosphate, 150 mM NaCl, 2 mM MgCl2, 3.3 mM K3[Fe(CN)6], 3.3 mM K4[Fe(CN)6], pH=6) for 16 h at 37° C., then washed with warm PBS three times and imaged in PBS within a week. Images were captured on a Zeiss Axiovert 200M microscope with a 20× Plan-NeoFluar objective and Axiocam digital camera. SA-β-Gal-positive and -negative cells were counted in more than 5 fields, yielding an average percentage indicated on each SA-β-Gal image as mean±SD. Three replicates were performed.

MCF7-FUCCI cells = assay: Time-lapse live-cell analysis of cell cycle; format: cell-based, human; settings: 0.5 μM for 1 h, then 6 Gy, 6 days
Method: MCF7-FUCCI cells were seeded at 3×10^4 per well in 6-well plates, allowed to attach overnight, then treated with 0.5 μM NU-2 control, NU-1 or chrolactomycin for 1 h, followed by 6 Gy. Then, live-cell imaging was conducted using the IncuCyteS3. Phase contrast along with green and red channels were acquired at 20× magnification with scanning every 2 h for 6 days. 16 non-overlapping fields were captured for each well. Representative consecutive images were used to create the movies using Fiji (Schindelin et al., 2012).

CT26 cells = assay: Clonogenicity assay (inhibitor alone); format: cell-based, mouse; settings: 1 μM NU-1, 2 μM MST, 20 μM BIBR
Method: MCF7, Saos-2, or CT26 cells were seeded in 6-well plates at 100 cells per well in triplicate and allowed to attach overnight. MCF7 or CT26 cells were then treated with DMSO vehicle or TERT inhibitors in final concentration of 0.25, 0.5, 0.75, 1, 2 μM for NU-1, 2.5, 5, 7.5, 10, 20 μM for BIBR 1532, or 1, 2, 3, 4, 5 μM for MST-312. Saos-2 cells were treated with DMSO vehicle or TERT inhibitors in final concentration of 0.25, 0.5, 0.75, 1, 2 μM for NU-1 or 2.5, 5, 10, 20, 40 μM for BIBR 1532. The final volume of cell culture medium was 3 mL per well. MCF7 and Saos-2 cells were continuously cultured for 3 weeks and CT26 for 2 weeks in the presence of TERT inhibitors, fixed in methanol for 5 min, then stained with 0.5% crystal violet for 10 min at room temperature. After washing with water, the plates were dried at room temperature and imaged with an iBright Imaging System (Thermo Fisher Scientific).

C=C1C(=O)[C@](C)(C(=O)OC)[C@H](CCc2cn(Cc3ccc(F)cc3F)nn2)O[C@@H]1C [NU-1]
Effect on 53BP1 or γH2AX foci (Saos-2 cells): appeared not to impact 53BP1 or γH2AX foci
Enhancement of senescence after IR at low concentration (MCF7 cells): sufficient to enhance senescence after IR
Surviving cells arrested with G1 marker expression and senescent morphology (MCF7-FUCCI cells): ~80%
Tolerance in clonogenic assay (inhibitor alone) (CT26 cells): tolerated
